Literature values in patent US20220295833A1, “SWEETENER BLENDS WITH IMPROVED TASTE” (The Coca-Cola Company, priority 2019, published 2022).

aqueous solubility: about 0.8 wt %
SMILES: C=C1C[C@@]23CC[C@H]4[C@@](C)(CCC[C@@]4(C)C(=O)O[C@@H]4O[C@H](CO)[C@@H](O)[C@H](O)[C@H]4O)[C@@H]2CC[C@]1(O[C@@H]1O[C@H](CO)[C@@H](O)[C@H](O[C@@H]2O[C@H](CO)[C@@H](O)[C@H](O)[C@H]2O)[C@H]1O[C@@H]1O[C@H](CO)[C@@H](O)[C@H](O)[C@H]1O)C3 [Rebaudioside A]
